Measured values reported in ChEMBL document CHEMBL6087398, “Natural phenol carbamates: Selective BuChE/FAAH dual inhibitors show neuroprotection in an Alzheimer's disease mouse model” (Eur J Med Chem, 2025).
Calls of active or inactive are those of the source. No cut-off for these calls is given here.

Assays:
[1] = biological target: T1, Fatty-acid amide hydrolase 1 (Homo sapiens, UniProt O00519); assay: Inhibition of human FAAH
T1 sequence (O00519 whole entry): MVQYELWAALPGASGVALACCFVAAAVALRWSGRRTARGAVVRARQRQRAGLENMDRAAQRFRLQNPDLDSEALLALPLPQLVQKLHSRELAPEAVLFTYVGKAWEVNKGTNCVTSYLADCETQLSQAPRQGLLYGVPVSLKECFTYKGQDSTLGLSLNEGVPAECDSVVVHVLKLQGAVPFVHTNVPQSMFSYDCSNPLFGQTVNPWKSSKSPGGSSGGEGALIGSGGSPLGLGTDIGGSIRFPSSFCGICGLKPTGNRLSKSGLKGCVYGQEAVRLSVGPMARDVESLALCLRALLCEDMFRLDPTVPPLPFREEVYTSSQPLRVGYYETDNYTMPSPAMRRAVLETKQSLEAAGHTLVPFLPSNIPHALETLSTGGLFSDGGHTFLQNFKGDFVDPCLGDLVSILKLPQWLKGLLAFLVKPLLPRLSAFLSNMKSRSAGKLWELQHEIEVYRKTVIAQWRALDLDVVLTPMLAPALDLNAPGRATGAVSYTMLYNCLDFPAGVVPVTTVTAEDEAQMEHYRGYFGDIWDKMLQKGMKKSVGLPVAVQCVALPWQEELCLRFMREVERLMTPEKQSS

Cholinesterase [2] = biological target: T2, Cholinesterase (Homo sapiens, UniProt P06276); assay: Binding affinity to human BuChE (unknown origin) assessed as overall carbamolyation rate at 100 to 1000 nM incubated for 60 mins
Mus musculus [3] = assay: Antialzheimer activity against amyloid beta (1 to 42 residues) induced ICR male mouse model assessed as increase in neuron density in hippocampal CA1 region at 10 mg/kg, po administered for 12 days and measured on day 15 by H and E staining based analysis; type: functional, organism-based; details: time 12.0 day
[4] = biological target: Acetylcholinesterase (Homo sapiens) (UniProt P22303); assay: Inhibition of recombinant human AChE using acetylthiocholine iodide as substrate incubated for 5 mins relative to control
BV-2 [5] = assay: Immunomodulatory activity in mouse BV-2 cells assessed as decrease in LPS induced IL-1 beta release incubated for 24 hrs by Western blotting analysis; type: functional, cell-based; details: dose 0-10 µM
[6] = Toxicity in amyloid beta (1 to 42 residues) induced ICR male mouse model assessed as effect on body weight at 10 mg/kg, po administered for 12 days and measured daily; type: organism-based; details: in vivo, 288 h, time 12 day
BV-2 [7] = assay: Induction of microglial polarization to M2 phenotype in mouse BV-2 cells assessed as increase in CD206 expression incubated for 24 hrs by Western blotting analysis; type: functional, cell-based; details: dose 0-10 µM
[8] = biological target: T1, Fatty-acid amide hydrolase 1; assay: Inhibition of human FAAH using arachidonoyl amide as substrate incubated for 30 mins by fluorescence-based cayman assay
BV-2 [9] = assay: Immunomodulatory activity in mouse BV-2 cells assessed as decrease in LPS induced iNOS expression at 10 uM incubated for 24 hrs by Western blotting analysis; type: functional, cell-based
[10] = Neurotoxicity against mouse BV-2 cells assessed as improvement in cell morphological changes at 20 uM by inverted microscopic analysis; type: toxicity, cell-based; details: bv-2, 20 µM
Cholinesterase [11] = biological target: T2, Cholinesterase; assay: Binding affinity to human BuChE (unknown origin) assessed as decarbamolyation rate at 100 to 1000 nM incubated for 60 mins; details: dose 100-1000 nM
Cholinesterase [12] = biological target: Cholinesterase (Equus caballus, UniProt P81908); assay: Inhibition of equine BuChE using butyrylthiocholine iodide as substrate preincubated with enzyme for 20 mins followed by substrate addition and measured after 20 mins by Ellman's method
L02 [13] = assay: Cytotoxicity against human L02 cells assessed as reduction in cell viability at 6.25 to 50 uM incubated for 24 hrs by MTT assay relative to control; type: toxicity, cell-based; details: l02, 24 h, dose 6.25-50 µM
[14] = Neurotoxicity against mouse BV-2 cells assessed as reduction in cell viability at 25 to 50 uM incubated for 24 hrs by MTT assay; type: toxicity, cell-based; details: bv-2, 24 h, dose 25-50 µM
BV-2 [15] = assay: Induction of microglial polarization to M2 phenotype in mouse BV-2 cells assessed as increase in Arg-1 expression incubated for 24 hrs by Western blotting analysis; type: functional, cell-based; details: dose 0-10 µM
PC-12 [16] = assay: Neuroprotective activity against H2O2 induced rat PC12 cells assessed as increase in cell viability at 50 uM measured after 24 hrs by MTT assay relative to control; type: functional
BV-2 [17] = assay: Immunomodulatory activity in mouse BV-2 cells assessed as decrease in LPS induced IL-1 beta release at 10 uM incubated for 24 hrs by Western blotting analysis; type: functional, cell-based
in vitro = details: PAMPA, pH 7.4
Description: Permeability of the compound in PBS at pH 7.4 incubated for 18 hrs by PAMPA-BBB assay

[18] = Toxicity in amyloid beta (1 to 42 residues) induced ICR male mouse model assessed as pericentral necrosis at 10 mg/kg, po administered for 12 days and measured on day 15 by H and E staining based immunohistochemistry analysis; type: organism-based; details: in vivo, 288 h, time 12 day
BV-2 [19] = assay: Induction of microglial polarization to M2 phenotype in mouse BV-2 cells assessed as increase in Arg-1 activity incubated for 24 hrs by Western blotting analysis; type: functional, cell-based
Mus musculus [20] = assay: Antialzheimer activity against amyloid beta (1 to 42 residues) induced ICR male mouse model assessed as reduction in amyloid beta (1 to 42 residues) at 10 mg/kg, po administered for 12 days by ELISA relative to control; type: functional; design: scale not given: the % may be the effect or the level left; details: time 12 day
[21] = biological target: Acetylcholinesterase (Electrophorus electricus) (UniProt O42275); assay: Inhibition of electric eel AChE using acetylthiocholine iodide as substrate preincubated with enzyme for 20 mins followed by substrate addition and measured after 20 mins by Ellman's method; design: concentration or dose not given beside the values; details: time 40.0 min
Cholinesterase [22] = biological target: T2, Cholinesterase; assay: Inhibition of human BuChE using butyrylthiocholine iodide as substrate incubated for 5 mins
L02 [23] = assay: Cytotoxicity against human L02 cells assessed as reduction in cell viability at 12.5 uM incubated for 24 hrs by MTT assay; type: toxicity, cell-based; details: l02, 24 h
Cholinesterase [24] = biological target: T2, Cholinesterase; assay: Binding affinity to human BuChE (unknown origin) assessed as carbamolyation rate at 100 to 1000 nM incubated for 60 mins; details: dose 100-1000 nM
Cholinesterase [25] = biological target: T2, Cholinesterase; assay: Binding affinity to human BuChE (unknown origin) assessed as equilibrium dissociation constant at 100 to 1000 nM incubated for 60 mins
BV-2 [26] = assay: Induction of microglial polarization to M2 phenotype in mouse BV-2 cells assessed as reduction in iNOS activity incubated for 24 hrs by Western blotting analysis; type: functional, cell-based
[27] = Toxicity in amyloid beta (1 to 42 residues) induced ICR male mouse model assessed as hepatocyte fatty degeneration at 10 mg/kg, po administered for 12 days and measured on day 15 by H and E staining based immunohistochemistry analysis; type: organism-based; details: in vivo, 288 h, time 12 day
PC-12 [28] = assay: Neuroprotective activity against H2O2 induced rat PC12 cells assessed as cell viability measured after 24 hrs by MTT assay; type: functional, cell-based; details: dose 6.25-50 µM
Mus musculus [29] = assay: Antialzheimer activity against amyloid beta (1 to 42 residues) induced ICR male mouse model assessed as prevention in cognitive dysfunction at 10 mg/kg, po administered for 12 days by Morris water maze test; type: functional, organism-based; details: time 12.0 day

T2 sequence (P06276 whole entry, the tested form may be a part): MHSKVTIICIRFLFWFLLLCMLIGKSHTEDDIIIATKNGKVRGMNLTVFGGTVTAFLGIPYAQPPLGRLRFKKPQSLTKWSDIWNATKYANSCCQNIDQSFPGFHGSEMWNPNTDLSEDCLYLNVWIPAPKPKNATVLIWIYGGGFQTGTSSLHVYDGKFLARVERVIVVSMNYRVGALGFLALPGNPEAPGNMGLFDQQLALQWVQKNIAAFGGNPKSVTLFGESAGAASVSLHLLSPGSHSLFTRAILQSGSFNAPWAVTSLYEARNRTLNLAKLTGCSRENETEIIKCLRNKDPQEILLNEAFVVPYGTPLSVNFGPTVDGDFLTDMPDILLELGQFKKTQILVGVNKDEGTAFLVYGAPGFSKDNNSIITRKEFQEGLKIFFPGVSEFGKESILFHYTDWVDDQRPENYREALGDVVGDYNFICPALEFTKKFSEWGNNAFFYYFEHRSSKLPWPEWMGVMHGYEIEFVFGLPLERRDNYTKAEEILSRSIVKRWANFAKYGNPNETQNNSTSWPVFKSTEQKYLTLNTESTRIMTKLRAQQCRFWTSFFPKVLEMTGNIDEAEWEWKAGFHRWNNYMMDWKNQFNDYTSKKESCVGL
Acetylcholinesterase (Homo sapiens), sequence (P22303 whole entry): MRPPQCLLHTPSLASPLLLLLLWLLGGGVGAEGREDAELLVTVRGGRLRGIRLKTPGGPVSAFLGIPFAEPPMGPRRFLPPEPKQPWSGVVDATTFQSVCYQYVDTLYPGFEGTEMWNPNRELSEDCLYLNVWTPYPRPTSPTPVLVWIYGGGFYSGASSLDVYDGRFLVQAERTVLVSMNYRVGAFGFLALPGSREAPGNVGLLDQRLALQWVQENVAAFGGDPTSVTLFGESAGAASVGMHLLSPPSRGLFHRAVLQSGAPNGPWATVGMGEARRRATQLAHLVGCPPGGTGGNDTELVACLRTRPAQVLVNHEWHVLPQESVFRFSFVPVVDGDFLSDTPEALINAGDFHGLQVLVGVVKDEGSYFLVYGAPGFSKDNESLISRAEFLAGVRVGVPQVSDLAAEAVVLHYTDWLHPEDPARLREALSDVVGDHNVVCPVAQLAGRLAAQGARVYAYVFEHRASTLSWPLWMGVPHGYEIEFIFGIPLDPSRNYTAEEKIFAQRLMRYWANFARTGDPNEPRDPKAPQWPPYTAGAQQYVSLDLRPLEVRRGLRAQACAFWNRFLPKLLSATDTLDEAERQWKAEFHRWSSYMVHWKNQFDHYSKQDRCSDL
Cholinesterase (Equus caballus, UniProt P81908), sequence (P81908 whole entry): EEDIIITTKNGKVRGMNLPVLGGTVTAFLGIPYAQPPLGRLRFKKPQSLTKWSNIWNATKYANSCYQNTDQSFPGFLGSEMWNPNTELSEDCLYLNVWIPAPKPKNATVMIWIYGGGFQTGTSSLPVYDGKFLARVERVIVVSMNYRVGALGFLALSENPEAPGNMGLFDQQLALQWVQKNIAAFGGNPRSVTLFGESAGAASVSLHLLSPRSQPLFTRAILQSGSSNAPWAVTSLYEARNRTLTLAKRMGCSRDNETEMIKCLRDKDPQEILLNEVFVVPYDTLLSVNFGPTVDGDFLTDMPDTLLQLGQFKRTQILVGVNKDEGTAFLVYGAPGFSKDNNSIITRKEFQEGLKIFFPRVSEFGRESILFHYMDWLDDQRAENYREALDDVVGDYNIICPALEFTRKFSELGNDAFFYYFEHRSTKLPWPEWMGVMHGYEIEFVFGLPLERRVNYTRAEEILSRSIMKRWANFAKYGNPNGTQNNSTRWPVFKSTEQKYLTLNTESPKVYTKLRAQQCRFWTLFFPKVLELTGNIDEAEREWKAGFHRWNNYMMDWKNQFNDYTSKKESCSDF
Acetylcholinesterase (Electrophorus electricus), sequence (O42275 24-633 limits assumed): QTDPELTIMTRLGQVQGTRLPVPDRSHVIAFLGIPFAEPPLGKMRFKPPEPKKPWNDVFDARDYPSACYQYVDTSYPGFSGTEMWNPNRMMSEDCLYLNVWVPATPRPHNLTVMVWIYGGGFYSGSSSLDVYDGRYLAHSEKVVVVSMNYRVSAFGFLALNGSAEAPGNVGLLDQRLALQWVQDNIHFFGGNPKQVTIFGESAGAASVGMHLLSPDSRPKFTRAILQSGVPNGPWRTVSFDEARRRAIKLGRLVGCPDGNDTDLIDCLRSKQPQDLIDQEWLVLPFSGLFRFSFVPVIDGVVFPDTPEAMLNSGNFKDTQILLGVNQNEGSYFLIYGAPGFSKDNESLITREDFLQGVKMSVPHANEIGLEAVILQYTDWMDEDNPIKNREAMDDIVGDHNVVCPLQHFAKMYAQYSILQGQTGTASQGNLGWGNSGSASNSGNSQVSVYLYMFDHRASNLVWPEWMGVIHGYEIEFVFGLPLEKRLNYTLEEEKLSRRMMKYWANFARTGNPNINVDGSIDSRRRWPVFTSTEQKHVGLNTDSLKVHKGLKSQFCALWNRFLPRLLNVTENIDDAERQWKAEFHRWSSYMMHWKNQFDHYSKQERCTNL

**Q.** With `CN(C(=O)n1cnc(-c2ccc[n+]([O-])c2)c1)C1CCCCC1` as the compound, how does the IC50 [1] read?
**A.** 7500 nM

**Q.** With `COc1ccc(C(C)=O)c(OC(=O)N(C)Cc2ccc(F)cc2)c1` as the compound, how does the Ki (Cholinesterase [2]) read?
**A.** 2.8 10^-3/uM/min

**Q.** What about the Activity (Mus musculus [3]) of the same compound?
**A.** Active

**Q.** And the inhibition [4]?
**A.** 10.4%

**Q.** And the Activity (BV-2 [5])?
**A.** Dose-dependent-effect

**Q.** And the Activity [6]?
**A.** Non-toxic

**Q.** And the Activity (BV-2 [7])?
**A.** Dose-dependent-effect

**Q.** What about the IC50 [8] of the same compound?
**A.** 400 nM

**Q.** What about the Activity (BV-2 [9]) of the same compound?
**A.** Active

**Q.** And the Activity [10]?
**A.** Non-toxic

**Q.** What about the K (Cholinesterase [11]) of the same compound?
**A.** 2.83 min⁻¹

**Q.** And the IC50 (Cholinesterase [12])?
**A.** 12 nM

**Q.** And the Activity (L02 [13])?
**A.** 88.6%

**Q.** And the Activity [14]?
**A.** Non-toxic

**Q.** And the Activity (BV-2 [15])?
**A.** Dose-dependent-effect

**Q.** And the Activity (PC-12 [16])?
**A.** 43%

**Q.** What about the Activity (BV-2 [17]) of the same compound?
**A.** Active

**Q.** And the Papp at 18 h (in vitro)?
**A.** 16.4 ×10⁻⁶ cm/s

**Q.** What about the Activity [18] of the same compound?
**A.** Non-toxic

**Q.** And the Activity (BV-2 [19])?
**A.** Active

**Q.** And the Activity (Mus musculus [20])?
**A.** 8.8%

**Q.** What about the inhibition [21] of the same compound?
**A.** 53%

**Q.** What about the IC50 (Cholinesterase [22]) of the same compound?
**A.** 81 nM

**Q.** What about the Activity (L02 [23]) of the same compound?
**A.** Non-toxic

**Q.** What about the K (Cholinesterase [24]) of the same compound?
**A.** 2.27 min⁻¹

**Q.** And the Kd (Cholinesterase [25])?
**A.** 2110 nM

**Q.** And the Activity (BV-2 [26])?
**A.** Active

**Q.** What about the Activity [27] of the same compound?
**A.** Non-toxic

**Q.** What about the Activity (PC-12 [28]) of the same compound?
**A.** Dose-dependent-effect

**Q.** And the Activity (Mus musculus [29])?
**A.** Active
